Source: ChEMBL document CHEMBL1151974, “Sesquiterpenoids and phenylpropanoids from pericarps of Illicium oligandrum” (2009)

Test system: SH-SY5Y
Experiment: Neuroprotective activity against H2O2-induced human SH-SY5Y cell damage assessed as increase in cell viability at 1 uM pretreated 2 hrs before H2O2 challenge relative to control
Format: functional

Compound | Activity [%]
C[C@]12COC(=O)C[C@@]3(CC(=O)[C@]1(C)O)[C@]2(O)CC[C@]3(C)O | 2.76
C[C@@]12COC(=O)[C@]1(C)[C@@H](O)[C@]13CC(=O)O[C@@]1(C)CC[C@]23O [ANISLACTONE B] | 12.55

Test system: SH-SY5Y
Experiment: Neuroprotective activity against H2O2-induced human SH-SY5Y cell damage assessed as increase in cell viability at 10 uM pretreated 2 hrs before H2O2 challenge relative to control
Format: functional

Compound | Activity [%]
COc1ccc([C@@H](O)[C@H](C)O)cc1 (relative stereo) [ERYTHRO ANETHOLE GLYCOL] | 7.29
COc1ccc([C@@H]2O[C@@H]3[C@@H](O[C@H]2C)O[C@H](CO)[C@@H](O)[C@@H]3O)cc1 [OLIGANDRUMIN E] | 6.42
C[C@@H]1[C@H](O)C[C@]23OC(=O)C[C@]12C[C@]1(O)OC[C@]3(C)[C@@H]1C [PSEUDOMAJUCIN] | 2.83
VITAMIN E | 7.16
